From ChEMBL document CHEMBL2016517, “3D Pharmacophore Model-Assisted Discovery of Novel CDC7 Inhibitors” (ACS Med Chem Lett, 2011)

The compounds below were run against CDC7/DBF4 (Cell division cycle 7-related protein kinase/Activator of S phase kinase) (Homo sapiens, UniProt O00311) (assay: Inhibition of CDC7/DBF4 using MCM-2 as substrate after 1 hr).
Chain of CDC7/DBF4 (Cell division cycle 7-related protein kinase/Activator of S phase kinase) (Q9UBU7 whole entry): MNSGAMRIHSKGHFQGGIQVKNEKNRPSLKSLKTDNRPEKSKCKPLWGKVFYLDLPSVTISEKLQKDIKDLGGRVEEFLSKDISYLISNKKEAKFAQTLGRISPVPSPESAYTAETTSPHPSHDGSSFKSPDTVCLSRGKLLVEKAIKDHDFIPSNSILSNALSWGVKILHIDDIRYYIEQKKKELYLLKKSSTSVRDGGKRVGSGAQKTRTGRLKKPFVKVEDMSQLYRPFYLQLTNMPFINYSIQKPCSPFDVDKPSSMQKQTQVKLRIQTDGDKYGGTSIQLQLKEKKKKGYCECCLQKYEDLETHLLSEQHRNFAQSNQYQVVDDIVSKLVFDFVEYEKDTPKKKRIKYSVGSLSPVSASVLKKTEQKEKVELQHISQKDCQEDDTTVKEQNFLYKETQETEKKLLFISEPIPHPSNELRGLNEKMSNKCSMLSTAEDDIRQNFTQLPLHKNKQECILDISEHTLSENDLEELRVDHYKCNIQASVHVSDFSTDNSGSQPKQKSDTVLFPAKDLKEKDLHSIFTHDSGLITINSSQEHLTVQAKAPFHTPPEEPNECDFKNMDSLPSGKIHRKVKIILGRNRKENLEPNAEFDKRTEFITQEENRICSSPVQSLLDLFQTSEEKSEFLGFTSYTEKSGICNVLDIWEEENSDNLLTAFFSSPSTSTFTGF
Chain of CDC7/DBF4 (Cell division cycle 7-related protein kinase/Activator of S phase kinase) (O00311 whole entry): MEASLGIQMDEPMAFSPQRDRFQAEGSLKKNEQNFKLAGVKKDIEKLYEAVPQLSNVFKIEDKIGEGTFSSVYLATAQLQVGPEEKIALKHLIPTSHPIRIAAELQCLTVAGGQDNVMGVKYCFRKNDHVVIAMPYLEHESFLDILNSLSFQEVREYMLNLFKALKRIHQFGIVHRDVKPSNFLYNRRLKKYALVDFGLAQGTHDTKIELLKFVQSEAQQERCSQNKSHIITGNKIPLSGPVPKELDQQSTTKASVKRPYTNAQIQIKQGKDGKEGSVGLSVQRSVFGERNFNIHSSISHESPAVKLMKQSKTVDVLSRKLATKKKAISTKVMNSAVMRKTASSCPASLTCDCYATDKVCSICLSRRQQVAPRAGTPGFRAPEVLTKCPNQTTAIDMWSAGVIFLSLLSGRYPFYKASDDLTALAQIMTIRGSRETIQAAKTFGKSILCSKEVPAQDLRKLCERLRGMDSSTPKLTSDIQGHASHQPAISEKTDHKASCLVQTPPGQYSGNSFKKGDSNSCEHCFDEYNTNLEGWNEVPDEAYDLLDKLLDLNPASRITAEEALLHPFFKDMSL
Type: protein-complex assay
In the case of O=C1CCC2(CCCCC2)c2sc(-c3cn[nH]c3)cc21, the IC50 is reported as 1 nM. Nc1cc(-c2cc3c(s2)C2(CCCCC2)CCC3=O)ccn1 was tested, and the IC50 was 33 nM. For O=C1CCC2(CCCCC2)c2sc(-c3ccncc3)cc21, the IC50 was 9 nM. O=C1NCCc2sc(-c3ccncc3)cc21 was tested, and the IC50 was 33 nM. Work on O=C1NCC2(CCCCC2)c2sc(-c3cc[nH]n3)cc21 yielded an IC50 of 370 nM. In the case of Cn1cc(-c2cc3c(s2)C2(CCCCC2)CNC3=O)cn1, the IC50 is reported as > 25000 nM. With O=C1NCC2(CCCCC2)c2sc(-c3cn[nH]c3)cc21 the IC50 was 1 nM. Work on O=C1NCC2(CCCCC2)c2sc(-c3ncnc4[nH]cnc34)cc21 yielded an IC50 of 1 nM. For CNC(=O)c1cc(-c2cc3c(s2)C2(CCCCC2)CNC3=O)ccn1, the IC50 was > 25000 nM. With CC(=O)Nc1cccc(-c2cc3c(s2)C2(CCCCC2)CNC3=O)c1 the IC50 was > 25000 nM. Work on CC(=O)Nc1cc(-c2cc3c(s2)C2(CCCCC2)CNC3=O)ccn1 yielded an IC50 of 41 nM. With Nc1cc(-c2cc3c(s2)C2(CCCCC2)CNC3=O)ccn1 the IC50 was 8 nM. O=C1NCC2(CCCCC2)c2sc(-c3cccnc3)cc21 gave an IC50 of 5100 nM. O=C1NCC2(CCCCC2)c2sc(-c3ccncc3)cc21 was tested, and the IC50 was < 1 nM. For O=C1NCC2(CCCCC2)c2sc(Cl)cc21, the IC50 was > 25000 nM.
